Laboratory results: publication PMC10447463, “Data-mining unveils structure–property–activity correlation of viral infectivity enhancing self-assembling peptides” (Nature Communications, 2023)

Experiment: Aggregate analysis by widefield fluorescence microscopy
Type: physicochemical
Outline: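 Fibrils aged 1 d RT in PBS; ThT stain (50 µM) at 0.1 mg/mL peptide; 10x air objective; ex 480/40 / em 527/30 nm; brightfield in parallel for ThT-negative aggregates; objects >10 µm^2 quantified, ≥3 images, mean ± SD.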

[1] = Fig S8 panels A, C, 3 fields of 1330 µm x 1330 µm
[2] = Fig S8 panels B, D, average aggregate area, 3 fields of 1330 µm x 1330 µm
[3] = Fig S8 panels B, D, median aggregate area, 3 fields of 1330 µm x 1330 µm
[4] = Fig S8 panels B, D, 3 fields of 1330 µm x 1330 µm
[5] = Fig S8 panels B, D, widefield fluorescence microscopy, 3 fields of 1330 µm x 1330 µm

Row | Substance | Avg Area in 3 *(1330 µm *1330 µm) (Fig S8 panels A, C) | Log 10 Number of aggregates in 3 * (1330 µm *1330 µm) (Fig S8 panels A, C) | Median Area in 3 * (1330 µm *1330 µm) (Fig S8 panels A, C) | log Avg Area in 3 * ( (1330 µm *1330 µm)) (Fig S8 panels A, C) | log Median Area in 3 * ( (1330 µm *1330 µm)) (Fig S8 panels A, C) | log Total Area of all particles in 3 * (1330 µm *1330 µm) (Fig S8 panels A, C) | Number of aggregates in 3 * (1330 µm *1330 µm) [1] | Avg Area in 3 *(1330 µm *1330 µm) [2] | Median Area in 3 * (1330 µm *1330 µm) [3] | Total Area of all particles in 3 * (1330 µm *1330 µm) [4] | Number of aggregates in 3 * (1330 µm *1330 µm) [5]
1 | HHHHKIKIKIKIYYYY [TM6] | 71.63 | 2.1683 | 19.72 | 1.855 | 1.295 | 4.023 | 147.3 | 71.63 | 19.72 | 10553.37833 | 147.3
2 | KFKFQFNMWQ [JG4] | 599.2 | 1.806 | 25.773 | 2.778 | 1.411 | 4.584 | 64 | 599.2 | 25.773 | 38349.21133 | 64
3 | KIKIQIC [TM112 / CN11] | 23.45 | 1.912 | 12.96 | 1.37 | 1.1125 | 3.282 | 81.67 | 23.45 | 12.96 | 1915.068 | 81.67
4 | KIKQIINMWQ [JG2] | 398.2 | 1.591 | 199.4905 | 2.6 | 2.3 | 4.191 | 39 | 398.2 | 199.4905 | 15530.404 | 39
5 | KWKWQW [KB3] | 112 | 1.442 | 41.405 | 2.049 | 1.617 | 3.491 | 27.67 | 112 | 41.405 | 3098 | 27.67
6 | QCKAKAQA [CK24] |  |  |  |  |  |  |  | 0 | 0 | 0 | 0
7 | QCKFKQFFNMWQ [CK10] |  |  |  |  |  |  |  | 30.56 | 15.07 | 55430.97933 | 1814
8 | QCKIKIQINMWQ [EF-C opt] | 21.24 | 2.6 | 11.97 | 1.327 | 1.078 | 3.927 | 398 | 21.24 | 11.97 | 8454 | 398
